The source of these data is ChEMBL document CHEMBL1128868, “A carotane sesquiterpene as a potent modulator of the Maxi-K channel from Arthrinium phaesospermum” (Bioorg Med Chem Lett, 1995).

Active and inactive are the calls of the source. No cut-off for these calls is given here.

The species entered for one assay is Bos taurus. Kind of assay: Inhibition of [125I]ChTX binding to Maxi-K channels in bovine aortic sarcolemmal membranes. It is filed as cell membranes. Conditions: Aorta.
The target in assay [1] is Potassium voltage-gated channel subfamily A member 3 (Rattus norvegicus) (UniProt P15384). Kind of assay: Inhibition of [125I]ChTX binding to voltage-gated potassium channel in rat brain synaptic plasma membranes; No effect. It is filed as cell membranes. Particulars: Membrane.
Chain of Potassium voltage-gated channel subfamily A member 3 (Rattus norvegicus) (P15384 whole entry): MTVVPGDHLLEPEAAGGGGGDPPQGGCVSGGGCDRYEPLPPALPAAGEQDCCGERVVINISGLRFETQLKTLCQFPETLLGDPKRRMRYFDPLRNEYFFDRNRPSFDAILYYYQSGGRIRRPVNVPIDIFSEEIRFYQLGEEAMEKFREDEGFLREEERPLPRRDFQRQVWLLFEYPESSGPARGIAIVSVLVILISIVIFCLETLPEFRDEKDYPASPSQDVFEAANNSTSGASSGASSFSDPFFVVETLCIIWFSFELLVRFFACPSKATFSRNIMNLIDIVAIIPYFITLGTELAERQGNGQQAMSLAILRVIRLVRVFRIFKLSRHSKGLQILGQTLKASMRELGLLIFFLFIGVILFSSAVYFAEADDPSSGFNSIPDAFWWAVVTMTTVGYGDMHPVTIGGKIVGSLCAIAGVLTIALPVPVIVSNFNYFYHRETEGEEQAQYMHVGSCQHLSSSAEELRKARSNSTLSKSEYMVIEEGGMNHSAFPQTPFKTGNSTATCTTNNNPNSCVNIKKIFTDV

As for `CC1=CC[C@@]2(C)C[C@H](O)[C@@](O)(C(C)C)[C@@H]2CC1`, the inhibition in the assay filed under Bos taurus was 200 nM. Further, the inhibition result in assay [1] was “inactive”.
